# Reference: patent US9464052B2, “Potassium ion channel modulators and uses thereof” (Ramot at Tel-Aviv University Ltd., priority 2008, dated 2016)
# Molecular target: KCNQ2/KCNQ3 potassium channel (Homo sapiens, UniProt O43525+O43526)
# Test: KCNQ2/KCNQ3 potassium channel current, automated parallel patch clamp (PatchXpress 7000A)
# Assay type: cell-based
# Settings: channel expressed in mammalian cells, ambient temperature
# Protocol: The objective of this study was to examine the in vitro effects of the Example compounds on the KCNQ2/KCNQ3 potassium channel current expressed in mammalian cells using the PatchXpress 7000A (Molecular Devices), an automatic parallel patch clamp system. The test compounds were evaluated at 30 μM with this concentration tested in 3 cells (n=3). The duration of exposure to the test compound concentration was 5 minutes. […] The results for a positive control, flupirtine (Table 2) confirm the sensitivity of the test system to detect KCNQ2/KCNQ3 current enhancement.
# All experiments were performed at ambient temperature. Each cell acted as its own control.
# A 30 μM concentration of test compound was applied via disposable polyethylene micropipette tips to naïve cells (n=2, where n=the number cells). Each solution exchange, performed in quadruplicate, consisted of aspiration and replacement of 45 of the total 50 μL volume of the extracellular well of the Sealchip16.
# Vehicle was applied to naïve cells (n 2, where n=the number cells), for a 5 minute exposure interval. Each solution exchange, performed in quadruplicate, consisted of aspiration and replacement of 45 μL of the total 50 μL volume of the extracellular well of the Sealchip16. After vehicle application, the positive control was applied in the same manner, to verify sensitivity of the assay.
# In preparation for a recording session, intracellular solution was loaded into the intracellular compartments of the Sealchip16 planar electrode. Cell suspension was pipetted into the extracellular compartments of the Sealchip16 planar electrode. After establishment of a whole-cell configuration, membrane currents were recorded using dual-channel patch clamp amplifiers in the PatchXpress®system. Before digitization, the current records were low-pass filtered at one-fifth of the sampling frequency.
# Data acquisition and analyses were performed using the suite of pCLAMP programs (Axon Instruments, Union City, Calif.). Steady state was defined by the limiting constant rate of change with time (linear time dependence). The steady state before and after test article application was used to calculate the percentage of current inhibited at each concentration. Results obtained from different cell were averaged and presented as Mean±S.D.—see Tables 1 and 2.
# [1] = 30 μM test compound, 5 minutes exposure
Structure (SMILES),Mean % Enhancement of KCNQ2/KCNQ3 [1] [%],"Mean % Enhancement of KCNQ2/KCNQ3 (10 μM positive control, applied after vehicle) [%]"
"O=C(O)CNC(=O)Cc1cc(Nc2cc(Cl)cc(Cl)c2)ccc1F [Example 2, {2-[5-(3,5-Dichloro-phenylamino)-2-fluoro-phenyl]-acetylamino}-acetic acid]",162.5,
"O=C(Cc1ccc(Nc2c(Cl)cc(C(F)(F)F)cc2Cl)cc1)NCCO [Example 3, 2-[4-(2,6-Dichloro-4-trifluoromethyl-phenylamino)-phenyl]-N-(2-hydroxy-ethyl)-acetamide]",115.8,
"CCOC(=O)Nc1ccc(NCc2ccc(F)cc2)nc1N [Flupirtine, reference compound]",,201.0

# The next lines start with the values.
Mean % Enhancement of KCNQ2/KCNQ3 [1] [%],"Mean % Enhancement of KCNQ2/KCNQ3 (10 μM positive control, applied after vehicle) [%]",Structure (SMILES)
168.2,,"O=C(Cc1cccc(Nc2c(Cl)cc(Cl)cc2Cl)c1)NCCO [Example 1, N-(2-Hydroxy-ethyl)-2-[3-(2,4,6-trichloro-phenylamino)-phenyl]-acetamide]"
181.9,,"O=C(O)CNC(=O)Cc1ccc(Nc2cc(Cl)cc(Cl)c2)cc1 [Example 4, {2-[4-(3,5-Dichlorophenylamino)-phenyl]-acetylamino}-acetic acid]"
